Organism: Rattus norvegicus
Experiment: Open TG-GATES - Regimen: Daily Repeat
Format: toxicity, organism-based, Sprague-Dawley
Set-up: regimen Daily Repeat, gender Male, age 6 weeks
Conditions: in vivo, po, 0 mg/kg, route gavage, dose level Control; for APTT / Bas / Eos / Fbg / Hb / Ht / Lym / MCH / MCHC / MCV / Mono / Neu / PT / Plat / RBC / Ret / WBC: tissue Blood; for KIDNEY_L / KIDNEY_R / KIDNEY_TOTAL: tissue Kidney; for LIVER: tissue Liver; for A/G / ALP / ALT / AST / BUN / CRE / Ca / Cl / DBIL / GLC / IP / K / LDH / Na / PL / RALB / TBIL / TC / TG / TP / gamma-GTP: tissue Plasma

In the case of `CN(C/C=C/C#CC(C)(C)C)Cc1cccc2ccccc12` [TERBINAFINE], the TERMINAL_BW (72 h, time 3 day) was 243.5 g, the APTT (72 h, time 3 day) was 18.4 s and the Bas (72 h, time 3 day) was 0.8%. The Eos (72 h, time 3 day) was 1%, the Fbg (72 h, time 3 day) was 227.8 mg/dL and the Hb (72 h, time 3 day) was 13.5 g/dL. The Ht (72 h, time 3 day) was 39.9%, the Lym (72 h, time 3 day) was 76% and the MCH (72 h, time 3 day) was 21.5 pg. It also gave an MCHC (72 h, time 3 day) of 33.8%, an MCV (72 h, time 3 day) of 63.4 fL and a Mono (72 h, time 3 day) of 3%. It also gave a Neu (72 h, time 3 day) of 19.2%, a PT (72 h, time 3 day) of 11.8 s and a Plat (72 h, time 3 day) of 117.2 x10_4/uL. It also gave an RBC (72 h, time 3 day) of 629 x10_4/ul, a Ret (72 h, time 3 day) of 5.9% and a WBC (72 h, time 3 day) of 104.3 x10_2/uL. It also gave a KIDNEY_L (72 h, time 3 day) of 1.1 g, a KIDNEY_R (72 h, time 3 day) of 1.1 g and a KIDNEY_TOTAL (72 h, time 3 day) of 2.2 g. It also gave an LIVER (72 h, time 3 day) of 11.8 g, an A/G (72 h, time 3 day) of 1.6 and an ALP (72 h, time 3 day) of 804.6 IU/L. For the same compound, the ALT (72 h, time 3 day) was 34.2 IU/L, the AST (72 h, time 3 day) was 66.8 IU/L and the BUN (72 h, time 3 day) was 14.4 mg/dL. The CRE (72 h, time 3 day) was 0.4 mg/dL, the Ca (72 h, time 3 day) was 10.8 mg/dL and the Cl (72 h, time 3 day) was 103.4 meq/L. For the same compound, the DBIL (72 h, time 3 day) was 0.098 mg/dL, the GLC (72 h, time 3 day) was 192.8 mg/dL and the IP (72 h, time 3 day) was 7.3 mg/dL. For the same compound, the K (72 h, time 3 day) was 4.2 meq/L, the LDH (72 h, time 3 day) was 191.8 IU/L and the Na (72 h, time 3 day) was 141.6 meq/L. For the same compound, the PL (72 h, time 3 day) was 147.6 mg/dL, the RALB (72 h, time 3 day) was 3.5 g/dL and the TBIL (72 h, time 3 day) was 0.2 mg/dL. The TC (72 h, time 3 day) was 74.6 mg/dL, the TG (72 h, time 3 day) was 99.2 mg/dL and the TP (72 h, time 3 day) was 5.6 g/dL. The gamma-GTP (72 h, time 3 day) was 2 IU/L, the TERMINAL_BW ([…], time 7 day) was 279 g and the TERMINAL_BW ([…], time 14 day) was 323.8 g. The TERMINAL_BW ([…], time 28 day) was 389.8 g, the APTT ([…], time 7 day) was 18.7 s and the Bas ([…], time 7 day) was 1%. For the same compound, the Eos ([…], time 7 day) was 1%, the Fbg ([…], time 7 day) was 236 mg/dL and the Hb ([…], time 7 day) was 13.9 g/dL. It also gave a Ht ([…], time 7 day) of 41%, a Lym ([…], time 7 day) of 79.6% and an MCH ([…], time 7 day) of 20.8 pg. The MCHC ([…], time 7 day) was 33.8%, the MCV ([…], time 7 day) was 61.4 fL and the Mono ([…], time 7 day) was 2.8%. For the same compound, the Neu ([…], time 7 day) was 15.6%, the PT ([…], time 7 day) was 11.7 s and the Plat ([…], time 7 day) was 121.9 x10_4/uL. It also gave an RBC ([…], time 7 day) of 669.2 x10_4/ul, a Ret ([…], time 7 day) of 5.2% and a WBC ([…], time 7 day) of 118.9 x10_2/uL. It also gave an APTT ([…], time 14 day) of 19.6 s, a Bas ([…], time 14 day) of 1% and an Eos ([…], time 14 day) of 0.8%. It also gave a Fbg ([…], time 14 day) of 220.4 mg/dL, a Hb ([…], time 14 day) of 14.7 g/dL and a Ht ([…], time 14 day) of 43.1%. For the same compound, the Lym ([…], time 14 day) was 84.2%, the MCH ([…], time 14 day) was 20.1 pg and the MCHC ([…], time 14 day) was 34.1%. It also gave an MCV ([…], time 14 day) of 59.1 fL, a Mono ([…], time 14 day) of 2.2% and a Neu ([…], time 14 day) of 12.2%. The PT ([…], time 14 day) was 11.5 s, the Plat ([…], time 14 day) was 109.6 x10_4/uL and the RBC ([…], time 14 day) was 729.8 x10_4/ul. For the same compound, the Ret ([…], time 14 day) was 4%, the WBC ([…], time 14 day) was 106.5 x10_2/uL and the APTT ([…], time 28 day) was 20 s. It also gave a Bas ([…], time 28 day) of 1%, an Eos ([…], time 28 day) of 1.2% and a Fbg ([…], time 28 day) of 230.6 mg/dL. It also gave a Hb ([…], time 28 day) of 15.5 g/dL, a Ht ([…], time 28 day) of 43.8% and a Lym ([…], time 28 day) of 80%. It also gave an MCH ([…], time 28 day) of 20.4 pg, an MCHC ([…], time 28 day) of 35.4% and an MCV ([…], time 28 day) of 57.8 fL. For the same compound, the Mono ([…], time 28 day) was 2.4%, the Neu ([…], time 28 day) was 15.8% and the PT ([…], time 28 day) was 12 s. It also gave a Plat ([…], time 28 day) of 116.1 x10_4/uL, an RBC ([…], time 28 day) of 757.6 x10_4/ul and a Ret ([…], time 28 day) of 2.5%. For the same compound, the WBC ([…], time 28 day) was 135.2 x10_2/uL, the KIDNEY_L ([…], time 7 day) was 1.2 g and the KIDNEY_R ([…], time 7 day) was 1.2 g. For the same compound, the KIDNEY_TOTAL ([…], time 7 day) was 2.5 g, the KIDNEY_L ([…], time 14 day) was 1.2 g and the KIDNEY_R ([…], time 14 day) was 1.2 g. The KIDNEY_TOTAL ([…], time 14 day) was 2.5 g, the KIDNEY_L ([…], time 28 day) was 1.4 g and the KIDNEY_R ([…], time 28 day) was 1.4 g. For the same compound, the KIDNEY_TOTAL ([…], time 28 day) was 2.8 g, the LIVER ([…], time 7 day) was 13.3 g and the LIVER ([…], time 14 day) was 13.3 g. It also gave an LIVER ([…], time 28 day) of 15.6 g, an A/G ([…], time 7 day) of 1.5 and an ALP ([…], time 7 day) of 874.6 IU/L. The ALT ([…], time 7 day) was 33.6 IU/L, the AST ([…], time 7 day) was 68.2 IU/L and the BUN ([…], time 7 day) was 15.4 mg/dL. The CRE ([…], time 7 day) was 0.4 mg/dL, the Ca ([…], time 7 day) was 10.7 mg/dL and the Cl ([…], time 7 day) was 102.8 meq/L. For the same compound, the DBIL ([…], time 7 day) was 0.094 mg/dL, the GLC ([…], time 7 day) was 201.8 mg/dL and the IP ([…], time 7 day) was 7.8 mg/dL. It also gave a K ([…], time 7 day) of 4.5 meq/L, an LDH ([…], time 7 day) of 212.4 IU/L and a Na ([…], time 7 day) of 141.8 meq/L. For the same compound, the PL ([…], time 7 day) was 140.2 mg/dL, the RALB ([…], time 7 day) was 3.5 g/dL and the TBIL ([…], time 7 day) was 0.1 mg/dL. It also gave a TC ([…], time 7 day) of 69.4 mg/dL, a TG ([…], time 7 day) of 95.8 mg/dL and a TP ([…], time 7 day) of 5.8 g/dL. The gamma-GTP ([…], time 7 day) was 0.8 IU/L, the A/G ([…], time 14 day) was 1.4 and the ALP ([…], time 14 day) was 734.4 IU/L. For the same compound, the ALT ([…], time 14 day) was 34.8 IU/L, the AST ([…], time 14 day) was 67.2 IU/L and the BUN ([…], time 14 day) was 16 mg/dL. The CRE ([…], time 14 day) was 0.4 mg/dL, the Ca ([…], time 14 day) was 10.6 mg/dL and the Cl ([…], time 14 day) was 105 meq/L. It also gave a DBIL ([…], time 14 day) of 0.1 mg/dL, a GLC ([…], time 14 day) of 208.4 mg/dL and an IP ([…], time 14 day) of 7.2 mg/dL. It also gave a K ([…], time 14 day) of 3.7 meq/L, an LDH ([…], time 14 day) of 188.8 IU/L and a Na ([…], time 14 day) of 142.8 meq/L. For the same compound, the PL ([…], time 14 day) was 132.8 mg/dL, the RALB ([…], time 14 day) was 3.4 g/dL and the TBIL ([…], time 14 day) was 0.2 mg/dL. For the same compound, the TC ([…], time 14 day) was 63.6 mg/dL, the TG ([…], time 14 day) was 108 mg/dL and the TP ([…], time 14 day) was 5.8 g/dL. The gamma-GTP ([…], time 14 day) was 1 IU/L, the A/G ([…], time 28 day) was 1.3 and the ALP ([…], time 28 day) was 719.6 IU/L. The ALT ([…], time 28 day) was 33.8 IU/L, the AST ([…], time 28 day) was 65.8 IU/L and the BUN ([…], time 28 day) was 17.6 mg/dL. For the same compound, the CRE ([…], time 28 day) was 0.5 mg/dL, the Ca ([…], time 28 day) was 10.5 mg/dL and the Cl ([…], time 28 day) was 104.4 meq/L. The DBIL ([…], time 28 day) was 0.092 mg/dL, the GLC ([…], time 28 day) was 226.4 mg/dL and the IP ([…], time 28 day) was 6.9 mg/dL. It also gave a K ([…], time 28 day) of 4 meq/L, an LDH ([…], time 28 day) of 224.4 IU/L and a Na ([…], time 28 day) of 141.8 meq/L. For the same compound, the PL ([…], time 28 day) was 129.2 mg/dL, the RALB ([…], time 28 day) was 3.5 g/dL and the TBIL ([…], time 28 day) was 0.2 mg/dL. It also gave a TC ([…], time 28 day) of 62.6 mg/dL, a TG ([…], time 28 day) of 110.2 mg/dL and a TP ([…], time 28 day) of 6 g/dL. For the same compound, the gamma-GTP ([…], time 28 day) was 1.4 IU/L.

Reference: ChEMBL document CHEMBL3885861, “Open TG-GATES”
